Reference: the NIST ThermoML archive (doi:10.1021/je900244c)
“And” between values parts separate entries of the source, which are not always exact repeats. Identical values can stand only once. Numbers after ± are expanded uncertainties.

Test: xn = mol fraction of the nth substance listed
Details: 323.15 K, Gas, Buoyancy - hydrostatic balance with magnetic suspension - two sinkers

CC(C)C [2-methylpropane] + CCC
Details | mass density
660.6 kPa, x2 = 0.244 | 15.487 ± 0.044 kg/m3
670 kPa, x2 = 0.244 | 15.744 ± 0.045 kg/m3
670 kPa, x2 = 0.249 | 15.714 ± 0.045 kg/m3
670.1 kPa, x2 = 0.249 | 15.719 ± 0.045 kg/m3
679.7 kPa, x2 = 0.244 | 16.015 ± 0.045 kg/m3
680.3 kPa, x2 = 0.249 | 15.998 ± 0.045 kg/m3
680.4 kPa, x2 = 0.249 | 16.006 ± 0.045 kg/m3
690.2 kPa, x2 = 0.244 | 16.31 ± 0.045 kg/m3
690.2 kPa, x2 = 0.249 | 16.277 ± 0.046 kg/m3 and 16.285 ± 0.046 kg/m3
691.1 kPa, x2 = 0.244 | 16.328 ± 0.045 kg/m3
700.1 kPa, x2 = 0.244 | 16.592 ± 0.046 kg/m3
700.3 kPa, x2 = 0.249 | 16.571 ± 0.046 kg/m3
700.4 kPa, x2 = 0.249 | 16.571 ± 0.046 kg/m3
709.8 kPa, x2 = 0.244 | 16.868 ± 0.046 kg/m3
710 kPa, x2 = 0.249 | 16.835 ± 0.046 kg/m3
710.1 kPa, x2 = 0.249 | 16.843 ± 0.046 kg/m3
710.3 kPa, x2 = 0.244 | 16.875 ± 0.046 kg/m3
720.3 kPa, x2 = 0.249 | 17.129 ± 0.047 kg/m3
720.4 kPa, x2 = 0.249 | 17.137 ± 0.047 kg/m3
720.6 kPa, x2 = 0.244 | 17.177 ± 0.047 kg/m3
730 kPa, x2 = 0.249 | 17.416 ± 0.047 kg/m3
730.3 kPa, x2 = 0.249 | 17.408 ± 0.047 kg/m3
730.4 kPa, x2 = 0.244 | 17.456 ± 0.047 kg/m3
730.5 kPa, x2 = 0.244 | 17.456 ± 0.047 kg/m3
739.8 kPa, x2 = 0.249 | 17.687 ± 0.047 kg/m3
740 kPa, x2 = 0.249 | 17.697 ± 0.047 kg/m3
740.4 kPa, x2 = 0.244 | 17.75 ± 0.048 kg/m3
749.8 kPa, x2 = 0.244 | 18.022 ± 0.048 kg/m3
750 kPa, x2 = 0.249 | 17.989 ± 0.048 kg/m3 and 17.996 ± 0.048 kg/m3
750.2 kPa, x2 = 0.244 | 18.029 ± 0.048 kg/m3
759.7 kPa, x2 = 0.249 | 18.276 ± 0.048 kg/m3
759.9 kPa, x2 = 0.249 | 18.276 ± 0.048 kg/m3
761.2 kPa, x2 = 0.244 | 18.357 ± 0.048 kg/m3
769.7 kPa, x2 = 0.244 | 18.602 ± 0.049 kg/m3
769.9 kPa, x2 = 0.249 | 18.577 ± 0.049 kg/m3
770 kPa, x2 = 0.249 | 18.577 ± 0.049 kg/m3
770.4 kPa, x2 = 0.499 | 16.983 ± 0.049 kg/m3
770.7 kPa, x2 = 0.499 | 16.982 ± 0.049 kg/m3
780 kPa, x2 = 0.249 | 18.871 ± 0.05 kg/m3
780.2 kPa, x2 = 0.499 | 17.239 ± 0.049 kg/m3
780.3 kPa, x2 = 0.499 | 17.244 ± 0.049 kg/m3
780.5 kPa, x2 = 0.249 | 18.894 ± 0.05 kg/m3
790.6 kPa, x2 = 0.244 | 19.228 ± 0.05 kg/m3
790.6 kPa, x2 = 0.499 | 17.513 ± 0.05 kg/m3
799.9 kPa, x2 = 0.249 | 19.467 ± 0.051 kg/m3
800.2 kPa, x2 = 0.499 | 17.765 ± 0.051 kg/m3 and 17.769 ± 0.051 kg/m3
810.5 kPa, x2 = 0.499 | 18.042 ± 0.051 kg/m3
820.2 kPa, x2 = 0.499 | 18.299 ± 0.051 kg/m3
820.4 kPa, x2 = 0.499 | 18.307 ± 0.051 kg/m3
830.3 kPa, x2 = 0.499 | 18.572 ± 0.052 kg/m3
840.3 kPa, x2 = 0.499 | 18.844 ± 0.052 kg/m3
840.4 kPa, x2 = 0.499 | 18.848 ± 0.052 kg/m3
850.3 kPa, x2 = 0.499 | 19.121 ± 0.052 kg/m3
860.2 kPa, x2 = 0.499 | 19.387 ± 0.052 kg/m3
860.4 kPa, x2 = 0.499 | 19.398 ± 0.052 kg/m3
870.4 kPa, x2 = 0.499 | 19.669 ± 0.053 kg/m3
879.9 kPa, x2 = 0.499 | 19.938 ± 0.053 kg/m3
880.4 kPa, x2 = 0.499 | 19.948 ± 0.053 kg/m3
890.2 kPa, x2 = 0.499 | 20.228 ± 0.053 kg/m3
900.1 kPa, x2 = 0.499 | 20.506 ± 0.053 kg/m3
900.6 kPa, x2 = 0.499 | 20.517 ± 0.053 kg/m3
910.1 kPa, x2 = 0.499 | 20.784 ± 0.053 kg/m3
920.3 kPa, x2 = 0.499 | 21.078 ± 0.053 kg/m3
920.6 kPa, x2 = 0.499 | 21.087 ± 0.053 kg/m3
930.3 kPa, x2 = 0.499 | 21.359 ± 0.053 kg/m3
939.7 kPa, x2 = 0.499 | 21.637 ± 0.053 kg/m3
939.8 kPa, x2 = 0.499 | 21.635 ± 0.053 kg/m3
950.6 kPa, x2 = 0.499 | 21.949 ± 0.053 kg/m3
960.2 kPa, x2 = 0.499 | 22.222 ± 0.053 kg/m3
960.3 kPa, x2 = 0.499 | 22.242 ± 0.052 kg/m3
970.3 kPa, x2 = 0.499 | 22.521 ± 0.052 kg/m3
978.9 kPa, x2 = 0.499 | 22.767 ± 0.052 kg/m3
979.6 kPa, x2 = 0.499 | 22.791 ± 0.052 kg/m3
